Tests used:
HA-FKBP-EGFP = HA-FKBP-EGFP (Homo sapiens, UniProt P42345+P62942); assay: Rapamycin-induced pupylation of FKBP-EGFP by FRB-mKate2-PafA in HEK293T cells; assay type: cell-based; settings: 100 nM rapamycin
VPS37C [1] = target: T1, VPS37C (Homo sapiens, UniProt A5D8V6); assay: MST binding to Cy5-labeled VPS37C; settings: purified recombinant VPS37C; n = 2, mean ± s.d.
T1 construct: expressed in transfected cells; host or cells: HEK293T
Protocol: (§1) SEPHS2-2xV5, VPS37C-2xV5, VPS29, TRAPPC3, TOM1, and TOM1L2 were labeled using Cy5-NHS ester (A100932, Sangon Biotech, China). Briefly, each target protein was diluted to 10 µM in PBS and underwent buffer exchange with PBS using a Zeba spin desalting column (89882, Thermo Scientific, USA) to remove Tris. The labeling reaction consisted of 80 µl of 10 µM target protein, 10 µl of 1 M NaHCO3 pH 8.3, and 10 µl of 1 mM Cy5-NHS ester in DMSO, and was incubated at 4°C overnight. The next day, unlabeled dyes were removed using Zeba spin desalting columns, and labeling efficiency was assessed by measuring the concentration of Cy5 with a UV-Vis spectrophotometer (SMA5000, Merinton, China). […] Cy5-labeled SEPHS2-2xV5 (5 nM), VPS37C-2xV5 (5 nM), VPS29 (10 nM), TRAPPC3 (10 nM), TOM1 (10 nM), or TOM1L2 (10 nM) was mixed with the corresponding diluted compound in a total volume of 20 µl, and then loaded into Monolith premium capillaries (MO-K025, NanoTemper, Germany). Binding affinity analysis was performed using a NanoTemper Monolith NT.115 instrument (NanoTemper). Kd values were obtained using MO.Affinity Analysis 2.3.0 software (NanoTemper).

VPS29 = target: T2, VPS29 (Homo sapiens, UniProt Q9UBQ0); assay: MST binding to Cy5-labeled VPS29
T2 construct: 6xHis (pET28a, Ni column purification); made in house; host or cells: E. coli BL21(DE3)
Protocol: as §1

TOM1 = target: T3, TOM1 (Homo sapiens, UniProt O60784); assay: MST binding to Cy5-labeled TOM1; settings: n = 2
T3 construct: 6xHis (pET28a, Ni column purification); made in house; host or cells: E. coli BL21(DE3)
Protocol: as §1

TOM1L2 = target: T4, TOM1L2 (Homo sapiens, UniProt Q6ZVM7); assay: MST binding to Cy5-labeled TOM1L2; settings: n = 2
T4 construct: 6xHis (pET28a, Ni column purification); made in house; host or cells: E. coli BL21(DE3)
T4 sequence (Q6ZVM7 1-507): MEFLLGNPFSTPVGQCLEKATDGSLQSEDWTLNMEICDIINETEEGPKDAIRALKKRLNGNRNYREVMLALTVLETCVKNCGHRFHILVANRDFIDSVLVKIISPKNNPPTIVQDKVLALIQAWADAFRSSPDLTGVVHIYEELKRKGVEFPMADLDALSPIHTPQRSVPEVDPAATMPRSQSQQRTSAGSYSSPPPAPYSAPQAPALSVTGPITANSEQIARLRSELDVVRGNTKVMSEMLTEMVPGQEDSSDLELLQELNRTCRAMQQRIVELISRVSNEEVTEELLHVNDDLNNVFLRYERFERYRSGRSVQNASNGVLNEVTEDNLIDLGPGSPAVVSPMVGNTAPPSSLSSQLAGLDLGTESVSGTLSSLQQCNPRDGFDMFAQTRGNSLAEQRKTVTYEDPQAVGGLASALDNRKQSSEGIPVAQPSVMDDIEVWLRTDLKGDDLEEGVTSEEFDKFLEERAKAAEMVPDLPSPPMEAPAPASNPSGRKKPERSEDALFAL
Protocol: as §1

TRAPPC3 = target: T5, TRAPPC3 (Homo sapiens, UniProt O43617); assay: MST binding to Cy5-labeled TRAPPC3; settings: n = 2
T5 construct: 6xHis (pET28a, Ni column purification); made in house; host or cells: E. coli BL21(DE3)
Protocol: as §1

VPS37C-V5 = target: T6, VPS37C-V5 (Homo sapiens, UniProt A5D8V6); assay: POST-IT labeling and streptavidin pulldown of VPS37C-V5 in HEK293T cells; assay type: cell-based; settings: 200 nM DC661-H1 with 2 µM competitor
T6 construct: expressed in transfected cells; host or cells: HEK293T

VPS37C [2] = target: T1, VPS37C; assay: Cellular thermal shift assay (CETSA) on cell lysates; assay type: binding; settings: 20 µM compound, 47°C to 59°C
Protocol: […] cells were cultured on a 100 mm dish and transfected with 10 µg of VPS37C-2xV5 plasmid. Forty-eight hours later, the cells were washed twice with ice-cold PBS, harvested in 1 ml of PBS buffer supplemented with 0.4% NP-40 and 0.5×protease inhibitor cocktail, incubated for 15 min with gently rotation at room temperature, and centrifuged at maximum speed for 15 min at 4°C. The supernatant was transferred to a new 1.5 ml microtube, and protein concentration was determined by a BCA assay. Cell lysates were diluted to a concentration of 2 mg/ml and divided into two groups. The drug group was treated with 20 µM of DC660 or HCQ, while the control group received the same amount of DMSO. After a 20 min incubation at room temperature, cell lysates were gently mixed and aliquoted into PCR tubes with 40 µl each, then subjected to heat treatment for 4 min, ranging from 47°C to 59°C in 2°C increments, and cooled to room temperature on a T100 thermal cycler (Bio-Rad, USA). Subsequently, cell lysates were transferred to 1.5 ml microtubes and centrifuged at maximum speed for 20 min at 4°C to precipitate unstable insoluble proteins. The supernatant was transferred to a new 1.5 ml microtube, and 10 µl of 5×SDS sample buffer was added to each tube. Samples were boiled at 95°C for 5 min and processed for western blot analysis.

LC3-II [3] = assay: Autophagy inhibition by LC3-II western blot in HEK293T cells; assay type: cell-based, Homo sapiens; settings: 12 hr
From the text: (§2) Cells transfected and/or treated with different compounds were harvested at the end of treatment.

LC3-II [4] = assay: Autophagy inhibition by LC3-II western blot in A375 cells; assay type: cell-based, Homo sapiens; settings: 12 hr
From the text: as §2

Myc-Halo^8KR-PafA = target: T7, Myc-Halo^8KR-PafA (Rhodococcus rhodochrous, UniProt P0A3G2, A155T/A167V/A172T/A224E/C128F/C176G/D78G/E160R/E257R/H272N/K117R/K124R/K175M/K195N/K236R/K263R/K71R/K74R/L47V/L88M/N227D/P291S/S58T/T264A/Y273L/Y87F); assay: Halo-biotin competition assay (western blot, streptavidin-HRP); assay type: binding, Corynebacterium glutamicum; settings: 2 μM DH1 preincubation, 1 μM Myc-Halo^8KR-PafA, then 5 μM Halo-Biotin
T7 construct: 6xHis (Ni column purification); made in house; host or cells: E. coli BL21(DE3)
Protocol: Figure 2. Optimized Halo-PafA and Pup substrates efficiently promote pupylation in vitro in a proximity-dependent manner. […] (B) Comparison of proximity-tagging by different Halo-PafA derivatives on in vitro pupylation. (C) Comparison of different Pup substrates on in vitro pupylation with 500 nM DH1. […] (B–D) All reactions were conducted with 1 μM of a Halo-PafA derivative, 10 μM of one of the different Pup substrates, and 0.5 μM of a purified short SRC with a 2xV5 tag, SRC(247-536)-2xV5, at 37°C for 30 min. Pupylation levels of SRC were assessed by immunoblot (IB) using an anti-V5 antibody. Figure 2—source data 1. […] Figure 2—source data 2. […] Figure 2—figure supplement 1. Synthesis of dasatinib-Halo derivative 1 (DH1). Reagents and conditions: (a) HATU, DIPEA, DMF, RT, 2 hr; (b) NaOH, THF, H2O, RT, 2 hr. RT, room temperature. [drawing 4] Figure 2—figure supplement 2. Representative spectra of DH1. (A) ^1H NMR; (B) HRMS. [drawing 5] Figure 2—figure supplement 3. […] (A) Fluorescence polarization (FP) assay using 2 nM of HaloTag Alexa Fluor-488 (Halo-AF488) at 25°C. n = 2. […] (B) Western blot analysis for the Halo-Biotin competition assay. […] Levels of bound Halo-Biotin were assessed by streptavidin-HRP. (C) Quantitative analysis of western blot results shown in (B). n = 5. […] Pupylation levels of SRC were assessed by immunoblot (IB) using an anti-V5 antibody. […]

SRC = assay: In cellulo pupylation and pulldown assay of SRC in HEK293T cells; assay type: cell-based, Homo sapiens; settings: 500 nM DH1
SRC(247-536)-2xV5 = SRC(247-536)-2xV5 (Homo sapiens, UniProt P12931); settings: 500 nM DH1, N-terminal Halo^8KR, 37°C, 30 min
Chain of SRC(247-536)-2xV5 (P12931 247-536): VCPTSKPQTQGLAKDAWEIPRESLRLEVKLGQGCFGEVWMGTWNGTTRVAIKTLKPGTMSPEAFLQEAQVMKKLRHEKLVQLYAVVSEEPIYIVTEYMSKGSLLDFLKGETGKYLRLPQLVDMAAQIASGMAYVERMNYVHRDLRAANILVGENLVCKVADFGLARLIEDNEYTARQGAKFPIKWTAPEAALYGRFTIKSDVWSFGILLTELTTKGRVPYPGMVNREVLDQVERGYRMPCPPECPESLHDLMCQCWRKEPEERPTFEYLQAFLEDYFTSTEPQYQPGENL

T1 sequence (A5D8V6 whole entry): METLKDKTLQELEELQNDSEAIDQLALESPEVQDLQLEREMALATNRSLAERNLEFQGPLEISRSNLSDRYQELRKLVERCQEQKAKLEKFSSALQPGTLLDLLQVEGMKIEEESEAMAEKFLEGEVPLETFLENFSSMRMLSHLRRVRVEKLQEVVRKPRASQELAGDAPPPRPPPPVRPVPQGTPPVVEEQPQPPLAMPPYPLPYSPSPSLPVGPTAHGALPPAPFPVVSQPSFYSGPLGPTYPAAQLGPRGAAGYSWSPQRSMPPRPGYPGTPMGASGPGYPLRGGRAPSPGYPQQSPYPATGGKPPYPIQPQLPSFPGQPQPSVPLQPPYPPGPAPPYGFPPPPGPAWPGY
T3 sequence (O60784 whole entry): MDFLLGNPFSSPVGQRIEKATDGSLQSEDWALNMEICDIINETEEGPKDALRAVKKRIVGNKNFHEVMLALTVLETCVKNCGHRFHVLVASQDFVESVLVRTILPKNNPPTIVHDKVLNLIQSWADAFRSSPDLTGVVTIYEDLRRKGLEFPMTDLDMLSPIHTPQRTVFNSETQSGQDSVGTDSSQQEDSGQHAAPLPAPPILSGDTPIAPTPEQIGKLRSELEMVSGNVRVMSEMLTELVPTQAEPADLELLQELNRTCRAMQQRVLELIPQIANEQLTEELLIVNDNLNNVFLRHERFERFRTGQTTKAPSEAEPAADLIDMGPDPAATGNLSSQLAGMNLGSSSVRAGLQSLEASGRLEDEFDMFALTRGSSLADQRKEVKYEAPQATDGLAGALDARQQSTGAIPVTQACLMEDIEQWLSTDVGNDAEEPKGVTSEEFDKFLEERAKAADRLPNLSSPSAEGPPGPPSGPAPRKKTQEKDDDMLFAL
T6 sequence (A5D8V6 whole entry): as the sequence (A5D8V6 whole entry) above
T5 sequence (O43617 whole entry): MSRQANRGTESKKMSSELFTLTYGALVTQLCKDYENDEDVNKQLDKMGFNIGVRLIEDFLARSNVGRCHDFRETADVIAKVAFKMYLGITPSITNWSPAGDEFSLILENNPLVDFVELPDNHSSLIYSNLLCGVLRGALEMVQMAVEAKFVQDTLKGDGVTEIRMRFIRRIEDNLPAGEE
T7 sequence (P0A3G2 other isoform, or with tags, fused parts or gaps with the stated changes): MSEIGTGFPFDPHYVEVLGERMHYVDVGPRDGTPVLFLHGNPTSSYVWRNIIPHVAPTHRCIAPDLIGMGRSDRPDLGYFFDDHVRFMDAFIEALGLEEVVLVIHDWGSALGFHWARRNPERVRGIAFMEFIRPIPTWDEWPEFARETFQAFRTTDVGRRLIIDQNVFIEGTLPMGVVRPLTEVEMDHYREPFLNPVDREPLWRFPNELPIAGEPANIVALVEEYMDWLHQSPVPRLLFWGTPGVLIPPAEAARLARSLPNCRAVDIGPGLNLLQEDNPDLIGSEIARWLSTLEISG
Chain of HA-FKBP-EGFP (P62942 whole entry): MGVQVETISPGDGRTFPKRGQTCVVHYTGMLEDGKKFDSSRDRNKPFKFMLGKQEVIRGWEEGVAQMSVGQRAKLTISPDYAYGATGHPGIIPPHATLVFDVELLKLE
Chain of HA-FKBP-EGFP (P42345 2012-2144 limits assumed): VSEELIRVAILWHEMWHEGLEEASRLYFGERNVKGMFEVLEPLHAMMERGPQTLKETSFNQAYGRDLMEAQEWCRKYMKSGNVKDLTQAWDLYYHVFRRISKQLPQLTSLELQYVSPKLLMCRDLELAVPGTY

SMILES	pupylation of FKBP-EGFP by PafA fused with FRB (HA-FKBP-EGFP)	Kd (VPS37C [1]) [µM]	binding to VPS29 (MST dose-response) (VPS29; n = 2)	binding to TOM1 (MST) (TOM1)	binding to TOM1L2 (MST) (TOM1L2)	binding to TRAPPC3 (MST) (TRAPPC3)	VPS37C binding to DC661-H1 under competition (VPS37C-V5)	thermal stability of VPS37C versus DMSO (CETSA) (VPS37C [2])	Kd (VPS29; n = 2, mean ± s.d.) [µM]	levels of LC3-II band (autophagy inhibition) (LC3-II [3])	levels of LC3-II band (autophagy inhibition) (LC3-II [4])	time for efficient linking to Halo^8KR-PafA (Myc-Halo^8KR-PafA) [min]	POST-IT labeling of exogenous and endogenous SRC (SRC)	pupylation of purified recombinant short SRC by Halo^8KR-PafA (SRC(247-536)-2xV5)
CO[C@H]1C[C@@H]2CC[C@@H](C)[C@@](O)(O2)C(=O)C(=O)N2CCCC[C@H]2C(=O)O[C@H]([C@H](C)C[C@@H]2CC[C@@H](O)[C@H](OC)C2)CC(=O)[C@H](C)/C=C(\C)[C@@H](O)[C@@H](OC)C(=O)[C@H](C)C[C@H](C)/C=C/C=C/C=C/1C [rapamycin]	robust pupylation	–	–	–	–	–	–	–	–	–	–	–	–	–
CCN(CCO)CCCC(C)Nc1ccnc2cc(Cl)ccc12 (centres unmarked) [HCQ, hydroxychloroquine, reference compound]	–	16.9 ± 8.7	no binding	did not show detectable binding	did not show detectable binding	did not show detectable binding	almost completely abolished	more stable	–	–	–	–	–	–
Clc1ccc2c(NCCCCCCNCCCCCCNc3ccnc4cc(Cl)ccc34)ccnc2c1 [DC660, N^1-(7-Chloroquinolin-4-yl)-N^6-(6-((7-chloroquinolin-4-yl)amino)hexyl)hexane-1,6-diamine]	–	0.0215 ± 0.0098	–	appeared to bind well	appeared to bind well	appeared to bind well	almost completely abolished	more stable	25 ± 11.7	robust LC3-II bands	robust LC3-II bands	–	–	–
Cc1nc(Nc2ncc(C(=O)Nc3c(C)cccc3Cl)s2)cc(N2CCN(CCNC(=O)CCCCC(=O)NCCOCCOCCOCCOCCCCCCCl)CC2)n1 [DH1, N1-(2-(4-(6-((5-((2-Chloro-6-methylphenyl)carbamoyl)thiazol-2-yl)amino)-2-methylpyrimidin-4-yl)piperazin-1-yl)ethyl)-N6-(18-chloro-3,6,9,12-tetraoxaoctadecyl)adipamide]	–	–	–	–	–	–	–	–	–	–	–	≤ 15	significant labeling activity	robust pupylation
